Measured values published in US5780642A, “Imidazole derivatives as therapeutic agents” (KNOLL Aktiengesellschaft, priority 1993, dated 1998).
Counter-ions that a name gives are not always drawn. Like-named read-outs stand apart in the source and are kept apart here.

What was measured:
[1] = system: Zymosan Stimulated Macrophages (arachidonic acid release); assay: Test A: Inhibition of Arachidonic Acid Release from Zymosan Stimulated Macrophages; assay type: cell-based, mouse (female MF1 mice); details: Mus musculus, Macrophage, read-out: Test A IC50
Method in brief: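 Peritoneal macrophages from female MF1 mice, labelled overnight with [3H]-arachidonic acid (1.6 μCi/ml), then exposed to compound 24 h unstimulated and re-dosed with zymosan stimulus for 5 h at 37 °C. Released radioactivity counted by scintillation; spontaneous release subtracted; IC50 from six concentrations (1–100 μM), quadruplicate wells.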

[2] = system: lymphocyte proliferation (BALB/c responder and C57BL/6 stimulator spleen cells); assay: Test C: Mixed Lymphocyte Reaction; assay type: cell-based, mouse (BALB/c and C57BL/6); details: Mus musculus, final concentration, read-out: IC50 (50% inhibition of the immune response)
Method: A mixed lymphocyte reaction (MLR) occurs when lymphocytes from two genetically dissimilar individuals, or inbred strains of mice are cultured together. An MLR results in the activation and proliferation of lymphocytes, which is measured by the incorporation of radiolabelled thymidine into the cellular DNA synthesised during cell division. A `one-way` MLR is used to determine the immunosuppressive activity of test compounds in vitro. In this reaction one population of spleen cells serves as the stimulator cells and is treated with mitomycin C to prevent cell division. Spleen cells from a second allogeneic population (responder cells) are untreated and when mixed with the stimulator cells are able to undergo division which is measured. The degree of proliferation is measured in the presence and absence of test compound to assess the immunosuppressive activity of the compound. The techniques for carrying out lymphocyte proliferation assays including MLRs are well known, eg Bradley, pages 156-166, in Mishell and Shiigi, Eds. Selected Methods in Cellular Immunology (Freeman, San Francisco, 1980); and Battisto et al, methods in Enzymology 1987; 150: 83-91. Various slight modifications of these techniques are in use and that used herein is described in Gibb, Webber and Bowen, J Immunological Methods 1985; 81: 107-113. The immunomodulant activity of the preferred compounds was determined in a mixed lymphocyte reaction (Test C) in the following manner: Mixed Lymphocyte Reaction Cell suspensions obtained from the spleens of female BALB/c and C57BL/6 strain mice of between 6 and 9 weeks of age were used as sources of responder and stimulator cells respectively. The mice were killed using a rising concentration of CO2 and the spleens removed aseptically and teased using a scalpel and forceps to produce a single cell suspension in Hanks balanced salt solution (HBSS). The suspensions were filtered through cell strainers (Falcon), sedimented by centrifugation and resuspended in Tris-buffered ammonium chloride pH 7.2 (medium D) to lyse the erythrocytes. The cells were sedimented again and washed twice in HBSS before resuspending in complete RPMI 1640 tissue culture medium (medium E). The C57BL/6 cells were resuspended to 9 mls per spleen and a solution of mitomycin C at 400 μg/ml in medium E added to give a final concentration of 40 μg/ml. After incubation of the C57BL/6 cells at 37° C. for 30 minutes in an atmosphere of 5% CO2 and 95% air, the cells were sedimented and washed 3 times in medium E. Both cell suspensions were diluted in medium E to 5×10^6 cells/ml. 100 μl of each of the responder and stimulator cell suspensions were aliquoted into the wells of 96 well flat bottom microtitre plates containing 50 μl of test compound at an appropriate dilution (initially 50 μM diluted in medium E from a stock solution at 100 mM in dimethyl sulphoxide) giving a final test compound concentration of 10 μM (final dilution). […] After four days of culture at 37° C. in a humidified atmosphere of 5% CO2 and 95% air, 1 μCi of tritiated thymidine in 20 μl of medium E was added to each well and the plates incubated for a further 24 hours. […] The filters were transferred to vials to which 2 mls of Packard Emulsifier-Safe scintillation fluid was added and the radioactivity from the incorporated thymidine was counted in a Packard liquid scintillation counter. […] The data were analysed to determine the percentage inhibition of lymphocyte proliferation by the test compound. […]

[3] = cited from earlier work
[4] = Indian Journal of Pharmacology 1973, 5, 428 / Pfl. Krankh. 1975, 3, 149; cited from earlier work
[5] = system: Carrageenan-induced pleurisy (migrating leukocytes); assay: Carrageenan-induced pleurisy in rats; assay type: in vivo; details: rat, p.o. at time of challenge and 24h and 48h thereafter; 10 mg/kg
Method: The most advantageous compounds of formula I were active in Tests A and B and also in the following test. Carrageenan-induced pleurisy in rats was carried out as described by Ackerman et al. J. Pharmacol. Exp. Therap. 1980, 215, 588-595. Migrating leukocytes were harvested by lavage of the thoracic cavity 72h after injection of 0.3 ml 1% λcarrageenan in sterile isotonic saline. Test compounds were administered p.o. at the time of challenge and 24h and 48 h thereafter.

[6] = system: Carrageenan-induced rat paw oedema; assay: Test B: Carrageenan-induced rat paw oedema test; assay type: in vivo; details: 100 mg/kg oral; active = 20% or greater inhibition of paw oedema in at least two out of three tests
Method: Test B was carried out in the following way: Carrageenan-induced rat paw oedema test Female rats, weight range 125-150 g were fasted overnight. One of the hind legs of each animal was marked with a line at the connection between the cuboid/navicular and calcaneus/talus bones. Groups of six rats were orally dosed at 10 ml/kg, in random order, with a given dose of the test compound given as a solution or suspension in 10% (w/v) aqueous acacia solution. One hour after dosing, 0.1 ml of 1% (w/v) sterile carrageenan λ in normal saline was injected deeply into the plantar surface of the marked hind foot of each rat. The volume of the foot (up to the marked line) was measured immediately after injection using duplicate water displacement readings. Three hours after injection the foot volume was measured again and the percentage increase in foot volume relative to the initial reading was calculated. The increase in foot volume (i.e. the degree of oedema) in drug treated animals when compared with that in the drug untreated control gave the degree of inhibition of paw oedema by the drug. Compounds were considered to be active in this test if they produced a 20% or greater inhibition of paw oedema in at least two out of three tests after oral dosing at 100 mg/kg. Statistical significance was assessed using the Student's t test for single dose studies and Dunnett's test for multiple dose studies. More advantageous compounds were active in both Tests A and B.

platelet aggregation = details: cited from earlier work
[7] = inhibition of arachidonic acid release, zymosan stimulated mouse peritoneal macrophages, tested at 100, 50, 20, 10, 5 and 1 μM, ≤100 μM considered active

Structure (SMILES) | IC50 [2] | IC50 [1, 7] | other results
CC(C)(CSc1ccc(Cl)cc1)NCCCn1ccnc1 [Example 19, N-[2-(4-Chlorophenylthio)-1,1-dimethylethyl]-3-(imidazol-1-yl)propylamine dihydrochloride] | 1.7 µM | – | IC50 [1]: 8 µM
CCC(NCC(C)N1CCOCC1)c1ccc(Cl)c(Cl)c1 (stereo not drawn) [N-[2-(4-Morpholino)propyl]-α-ethyl-3,4-dichlorobenzylamine] | – | – | undesirable side-effects in mice [3]: wide range of undesirable side-effects in mice; antiinflammatory activity (alleged) [4]: alleged to have antiinflammatory activity
Clc1ccc(OCCNCCCCCn2ccnc2)cc1 [Example 16, N-[2-(4-chlorophenoxy)ethyl]-5-(imidazol-1-yl)pentylamine dihydrochloride hemihydrate] | 2.8 µM | 7 µM | activity in carrageenan-induced pleurisy at 10 mg/kg [5]: active
Cc1nccn1CCCNCCOc1ccc(Cl)cc1 [Example 8, N-[2-(4-Chlorophenoxy)ethyl]-3-(2-methylimidazol-1-yl)propylamine] | 2.4 µM | 14 µM | activity in Test B (inhibition of paw oedema) [6]: active
CC(C)(NCCCc1ncc[nH]1)c1ccccc1 [Example 87, 3-(imidazol-2-yl)-N-(1-methyl-1-phenylethyl)propylamine] | 5.8 µM | 25 µM | –
CC(C)(COc1ccc(Cl)cc1)NCCCn1ccnc1.Cl.Cl [Example 17, N-[2-(4-chlorophenoxy)-1,1-dimethylethyl]-3-(imidazol-1-yl)propylamine dihydrochloride] | 5.9 µM | 12 µM | activity in carrageenan-induced pleurisy at 10 mg/kg [5]: active
CC(CCn1ccnc1)NCc1ccccc1 (stereo not shown) [Compound A] | – | – | inhibitory effect on platelet aggregation in vitro (platelet aggregation): inhibitory effect on platelet aggregation in vitro
